Converted amounts (≈) assume the structure as drawn.
What was measured:
[1] = tested on: Mycobacterium avium ATCC 25291; test: Microplate Alamar Blue assay (MABA) MIC, M. avium; assay type: cell-based; settings: ATCC25291, M. avium ATCC 25291
Description: (§1) Minimal inhibitory concentrations (MICs) in Mycobacterium tuberculosis H37Rv and Mycobacterium avium ATCC 25291 were quantified using microplate Alamar Blue assays as described (MABA; [Collins, L. & Franzblau, S. (1997) Microplate Alamar Blue assay versus BACTEC 460 system for high-throughput screening of compounds against Mycobacterium tuberculosis and Mycobacterium avium. Antimicrob. Agents Chemother. 41, 1004-1009]).

[2] = tested on: rifampin-resistant mutants, derivatives of M. smegmatis ATCC19420; test: MICs in rifampin-resistant mutants (cross-resistance levels); assay type: cell-based, Mycobacterium smegmatis
Description: (§2) MICs in Mycobacterium smegmatis ATCC 19420 and Mycobacterium smegmatis ATCC 19420 derivatives were quantified using broth microdilution assays as described [Clinical and Laboratory Standards Institute (CLSI/NCCLS) (2009) Methods for Dilution Antimicrobial Susceptibility Tests for Bacteria That Grow Aerobically; Approved Standard, Eighth Edition. CLIS Document M07-A8 (CLIS, Wayne Pa.)].

[3] = tested on: Mycobacterium smegmatis ATCC 19420; test: Broth microdilution MIC, M. smegmatis; assay type: cell-based; settings: Mycolicibacterium smegmatis, ATCC19420, M. smegmatis ATCC 19420; read-out: MIC Mycobacterium smegmatis ATCC 19420
Description: as §2

[4] = tested on: Mycobacterium tuberculosis H37Rv; test: Microplate Alamar Blue assay (MABA) MIC, M. tuberculosis; assay type: cell-based; settings: read-out: MIC Mycobacterium tuberculosis H37Rv
Description: as §1

[5] = tested on: Vero E6 ATCC CRL1586 cells; test: Mammalian-cell cytotoxicity, minimal cytotoxic concentration (CellTiter96); assay type: cell-based
Method: Minimal cytotoxic concentrations (MCCs) against mammalian cells in culture were determined using Vero E6 ATCC CRL1586 cells and the CellTiter96 assay kit (Promega, Inc.). […]

Compound	MIC [1] [µg/mL]	cross-resistance of rifampin-resistant mutants to the compound [2]	MIC [3] [µg/mL]	MIC [4] [µg/mL]	MCC mammalian cells Vero E6 ATCC CRL1586 [5] [µg/mL]
COc1ccccc1NC(=O)C(Cc1ccccc1)NC(=O)c1ccccc1 (centres unmarked) [I-17]	6.25 (≈ 16.7 µM)	No rifampin-resistant mutant was found to exhibit cross-resistance	0.39 (≈ 1.04 µM)	3.13 (≈ 8.36 µM)	>37
COc1ccccc1C(=O)NC(Cc1ccccc1)C(=O)Nc1ccccc1C (centres unmarked) [I-25]	–	No rifampin-resistant mutant was found to exhibit cross-resistance	6.25 (≈ 16.1 µM)	> 50	57
CCCOc1ccccc1NC(=O)C(Cc1ccccc1)NC(=O)c1ccccc1 (centres unmarked) [I-39]	> 50	No rifampin-resistant mutant was found to exhibit cross-resistance	0.78 (≈ 1.94 µM)	6.25 (≈ 15.5 µM)	20
Cc1ccccc1NC(=O)C(Cc1ccccc1)NC(=O)c1ccccc1Cl (centres unmarked) [I-91]	> 50	No rifampin-resistant mutant was found to exhibit cross-resistance	0.39 (≈ 0.993 µM)	> 50	19
Cc1ccc(Br)cc1NC(=O)C(Cc1ccccc1)NC(=O)c1ccccc1 (centres unmarked) [I-97]	> 50	No rifampin-resistant mutant was found to exhibit cross-resistance	0.78 (≈ 1.78 µM)	25 (≈ 57.2 µM)	–
Cc1ccccc1NC(=O)C(Cc1ccccc1)NC(=O)c1ccccc1Br (centres unmarked) [I-102]	–	No rifampin-resistant mutant was found to exhibit cross-resistance	3.12 (≈ 7.15 µM)	> 50	29
Cc1ccccc1NC(=O)C(Cc1ccccc1)NC(=O)c1ccccc1C (centres unmarked) [I-112]	> 50	No rifampin-resistant mutant was found to exhibit cross-resistance	0.39 (≈ 1.05 µM)	> 50	13
Cc1ccccc1NC(=O)C(Cc1ccc(OC(=O)c2ccccc2)cc1)NC(=O)c1ccccc1 (centres unmarked) [I-236, 4-(2-benzamido-3-oxo-3-(o-tolylamino)propyl)phenyl benzoate]	–	No rifampin-resistant mutant was found to exhibit cross-resistance	0.39 (≈ 0.815 µM)	25 (≈ 52.2 µM)	>48
Cc1ccccc1NC(=O)C(Cc1ccccc1)NC(=O)c1cccnc1 (centres unmarked) [II-13]	–	No rifampin-resistant mutant was found to exhibit cross-resistance	6.25 (≈ 17.4 µM)	> 50	>36
Cn1nnc2cccc(NC(=O)C(Cc3ccccc3)NC(=O)c3ccccc3)c21 (centres unmarked) [IX-224, N-(1-((1-methyl-1H-benzo[d][1,2,3]triazol-7-yl)amino)-1-oxo-3-phenylpropan-2-yl)benzamide]	25 (≈ 62.6 µM)	–	0.39 (≈ 0.976 µM)	6.25 (≈ 15.6 µM)	>100
Cn1ncc2c(NC(=O)C(Cc3ccccc3)NC(=O)c3ccccc3)cccc21 (centres unmarked) [IX-225, N-(1-((1-methyl-1H-indazol-4-yl)amino)-1-oxo-3-phenylpropan-2-yl)benzamide]	1.56 (≈ 3.92 µM)	–	0.195 (≈ 0.489 µM)	1.56 (≈ 3.92 µM)	45
O=C(NC(Cc1ccccc1)C(=O)Nc1cccc2nc[nH]c12)c1ccccc1 (centres unmarked) [IX-230, N-(1-((1H-benzo[d]imidazol-7-yl)amino)-1-oxo-3-phenylpropan-2-yl)benzamide]	25 (≈ 65 µM)	–	0.39 (≈ 1.01 µM)	50 (≈ 130 µM)	84
Cn1ccc2cccc(NC(=O)C(Cc3ccccc3)NC(=O)c3ccccc3)c21 (centres unmarked) [IX-231, N-(1-((1-methyl-1H-indol-7-yl)amino)-1-oxo-3-phenylpropan-2-yl)benzamide]	> 50	–	1.56 (≈ 3.92 µM)	25 (≈ 62.9 µM)	>100
Cn1cnc2cccc(NC(=O)C(Cc3ccccc3)NC(=O)c3ccccc3)c21 (centres unmarked) [IX-232, N-(1-((1-methyl-1H-benzo[d]imidazol-7-yl)amino)-1-oxo-3-phenyl-propan-2-yl)benzamide]	25 (≈ 62.7 µM)	–	1.56 (≈ 3.92 µM)	25 (≈ 62.7 µM)	96
O=C(NC(Cc1ccccc1)C(=O)Nc1cccc2ncsc12)c1ccccc1 (centres unmarked) [IX-234, N-(1-(benzo[d]thiazol-7-ylamino)-1-oxo-3-phenylpropan-2-yl)benz-amide]	3.12 (≈ 7.78 µM)	–	0.39 (≈ 0.971 µM)	3.12 (≈ 7.78 µM)	80
O=C(NC(Cc1ccccc1)C(=O)Nc1cccc2[nH]ncc12)c1cccc2[nH]ccc12 (centres unmarked) [IX-241, N-(1-((1H-indazol-4-yl)amino)-1-oxo-3-phenylpropan-2-yl)-1H-indole-4-carboxamide]	12.5 (≈ 29.5 µM)	–	0.78 (≈ 1.84 µM)	25 (≈ 59 µM)	36
O=C(NC(Cc1ccccc1)C(=O)Nc1ccccc1N1CCNCC1)c1cccc2[nH]ccc12 (centres unmarked) [IX-242, N-(1-oxo-3-phenyl-1-((2-(piperazin-1-yl)phenyl)amino)propan-2-yl)-1H-indole-4-carboxamide]	0.78 (≈ 1.67 µM)	–	0.04 (≈ 0.0855 µM)	3.12 (≈ 6.68 µM)	12
O=C(NC(Cc1ccccc1)C(=O)Nc1cc(F)ccc1N1CCNCC1)c1cccc2[nH]ccc12 (centres unmarked) [IX-243]	0.78 (≈ 1.61 µM)	–	0.19 (≈ 0.391 µM)	6.25 (≈ 12.9 µM)	11
COc1ccc(F)cc1NC(=O)C(Cc1ccccc1)NC(=O)c1cccc2[nH]ccc12 (centres unmarked) [IX-244, N-(1-((5-fluoro-2-methoxyphenyl)amino)-1-oxo-3-phenylpropan-2-yl)-1H-indole-4-carboxamide]	3.12 (≈ 7.24 µM)	–	0.78 (≈ 1.81 µM)	6.25 (≈ 14.5 µM)	58
O=C(NC(Cc1ccc(O)cc1)C(=O)Nc1cc(F)ccc1N1CCNCC1)c1ccccc1 (centres unmarked) [IX-246, N-(1-((5-fluoro-2-(piperazin-1-yl)phenyl)amino)-3-(4-hydroxy-phenyl)-1-oxopropan-2-yl)benzamide]	0.78 (≈ 1.69 µM)	–	0.195 (≈ 0.422 µM)	3.12 (≈ 6.76 µM)	34
CC1CN(c2ccccc2NC(=O)C(Cc2ccccc2)NC(=O)c2ccccc2)CC(C)O1 (centres unmarked) [IX-265, N-(1-((2-(2,6-dimethylmorpholino)phenyl)amino)-1-oxo-3-phenyl-propan-2-yl)benzamide]	6.25 (≈ 13.7 µM)	–	1.56 (≈ 3.41 µM)	6.25 (≈ 13.7 µM)	>100
CC1CN(c2ccccc2NC(=O)C(Cc2ccc(O)cc2)NC(=O)c2ccccc2)CC(C)O1 (centres unmarked) [IX-266, N-(1-((2-(2,6-dimethylmorpholino)phenyl)amino)-3-(4-hydroxy-phenyl)-1-oxopropan-2-yl)benzamide]	6.25 (≈ 13.2 µM)	–	1.56 (≈ 3.29 µM)	6.25 (≈ 13.2 µM)	71
COc1ccc(Cl)cc1NC(=O)C(Cc1ccccc1)NC(=O)c1ccccc1F (centres unmarked) [IX-278, N-(1-((5-chloro-2-methoxyphenyl)amino)-1-oxo-3-phenylpropan-2-yl)-2-fluorobenzamide]	2.3 (≈ 5.39 µM)	–	0.39 (≈ 0.914 µM)	0.78 (≈ 1.83 µM)	29
COc1ccc(Cl)cc1NC(=O)C(Cc1ccccc1)NC(=O)c1ccccc1C (centres unmarked) [IX-279, N-(1-((5-chloro-2-methoxyphenyl)amino)-1-oxo-3-phenylpropan-2-yl)-2-methylbenzamide]	0.78 (≈ 1.84 µM)	–	1.56 (≈ 3.69 µM)	0.78 (≈ 1.84 µM)	87
O=C(NC(Cc1ccccc1)C(=O)Nc1cccc2nc[nH]c12)c1ccccc1F (centres unmarked) [IX-280, N-(1-((1H-benzo[d]imidazol-7-yl)amino)-1-oxo-3-phenylpropan-2-yl)-2-fluorobenzamide]	25 (≈ 62.1 µM)	–	1.56 (≈ 3.88 µM)	12.5 (≈ 31.1 µM)	78
Cc1ccccc1C(=O)NC(Cc1ccccc1)C(=O)Nc1cccc2nc[nH]c12 (centres unmarked) [IX-281, N-(1-((1H-benzo[d]imidazol-7-yl)amino)-1-oxo-3-phenylpropan-2-yl)-2-methylbenzamide]	12.5 (≈ 31.4 µM)	–	0.78 (≈ 1.96 µM)	12.5 (≈ 31.4 µM)	92
Cc1ccccc1C(=O)NC(Cc1ccccc1)C(=O)Nc1cccc2c1cnn2C (centres unmarked) [IX-297, 2-methyl-N-(1-((1-methyl-1H-indazol-4-yl)amino)-1-oxo-3-phenyl-propan-2-yl)benzamide]	12.5 (≈ 30.3 µM)	–	0.78 (≈ 1.89 µM)	12.5 (≈ 30.3 µM)	>100
CC(=O)N1CCCN(c2ccc(F)cc2NC(=O)C(Cc2ccccc2)NC(=O)c2ccccc2F)CC1 (centres unmarked) [IX-319, N-(1-((2-(4-acetyl-1,4-diazepan-1-yl)-5-fluorophenyl)amino)-1-oxo-3-phenylpropan-2-yl)-2-fluorobenzamide]	6.25 (≈ 12 µM)	–	0.39 (≈ 0.749 µM)	3.12 (≈ 6 µM)	>100
